Test results reported in patent US10392368B2, “Pyrazolo and triazolo bicyclic compounds as JAK kinase inhibitors” (THERAVANCE BIOPHARMA R&D IP, LLC, priority 2017, dated 2019).

Columns and labels:
Tyk2 = biological target: T1, Tyk2 (Homo sapiens, UniProt P29597); assay: Biochemical Tyk2 kinase assay (LanthaScreen)
T1 construct: GST; purchased Life Technologies
Summary of the method: (§1)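 GST-tagged JAK enzyme and GFP-STAT1 peptide preincubated with compound 1 h, then ATP added; 1 h kinase reaction at ambient temperature, pH 7.5 HEPES/MgCl2 buffer, 1% DMSO. Tb-anti-pSTAT1 (pTyr701) TR-FRET, 520/495 nm ratio; IC50 from 4-parameter fit, converted to pKi via Cheng-Prusoff.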

JAK3 = biological target: T2, JAK3 (Homo sapiens, UniProt P52333); assay: Biochemical JAK3 kinase assay (LanthaScreen); parameters: GST; purchased Life Technologies; details: for JAK3 (pKi)-JAK1 (pKi): selectivity JAK3 over JAK1, difference of pKi
T2 sequence (P52333 1-1124): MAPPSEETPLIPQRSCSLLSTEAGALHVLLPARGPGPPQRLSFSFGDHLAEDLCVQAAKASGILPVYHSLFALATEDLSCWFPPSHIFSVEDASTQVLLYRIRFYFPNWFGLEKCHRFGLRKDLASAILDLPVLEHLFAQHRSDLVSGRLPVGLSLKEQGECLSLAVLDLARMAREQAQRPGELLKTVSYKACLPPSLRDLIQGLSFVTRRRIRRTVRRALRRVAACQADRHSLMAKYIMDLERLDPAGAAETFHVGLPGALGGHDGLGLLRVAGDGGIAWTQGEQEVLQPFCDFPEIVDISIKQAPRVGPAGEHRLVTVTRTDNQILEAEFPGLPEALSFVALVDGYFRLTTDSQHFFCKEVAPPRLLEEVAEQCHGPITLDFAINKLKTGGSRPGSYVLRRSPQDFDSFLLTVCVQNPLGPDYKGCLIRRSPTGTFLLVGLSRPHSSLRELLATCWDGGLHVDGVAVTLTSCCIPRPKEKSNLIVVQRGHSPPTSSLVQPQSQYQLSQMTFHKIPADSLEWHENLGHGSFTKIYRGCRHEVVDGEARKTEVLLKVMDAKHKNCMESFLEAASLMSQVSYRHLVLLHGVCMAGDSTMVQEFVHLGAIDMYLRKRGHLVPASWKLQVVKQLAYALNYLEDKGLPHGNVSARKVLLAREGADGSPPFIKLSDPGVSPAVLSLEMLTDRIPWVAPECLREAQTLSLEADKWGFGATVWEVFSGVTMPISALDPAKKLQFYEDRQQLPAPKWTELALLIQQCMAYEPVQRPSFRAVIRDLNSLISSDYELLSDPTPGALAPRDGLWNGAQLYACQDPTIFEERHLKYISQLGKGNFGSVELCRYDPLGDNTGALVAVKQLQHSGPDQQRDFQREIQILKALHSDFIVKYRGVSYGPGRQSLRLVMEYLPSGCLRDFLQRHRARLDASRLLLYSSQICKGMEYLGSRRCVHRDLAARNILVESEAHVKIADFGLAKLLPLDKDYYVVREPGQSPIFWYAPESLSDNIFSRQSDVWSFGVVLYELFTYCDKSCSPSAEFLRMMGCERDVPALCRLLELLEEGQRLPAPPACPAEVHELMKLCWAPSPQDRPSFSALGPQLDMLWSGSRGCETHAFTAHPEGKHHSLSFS
Summary of the method: as §1

[1] = tested on: IL-2 stimulated pSTAT5 in Tall-1 T cells; assay: Cellular JAK3 potency assay: inhibition of IL-2 stimulated pSTAT5 in Tall-1 T cells; format: cell-based, human; details: IL-2 stimulated pSTAT5, Tall-1 T cells
Summary of the method: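 Tall-1 human T cells were preincubated with compound for 1 h at 37° C, then stimulated with IL-2 (300 ng/ml final) for 30 min. STAT5 phosphorylation in lysates was read by AlphaLisa bead emission, and IC50 from inhibition curves is given as pIC50 (mean±SD).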

JAK1 = biological target: T3, JAK1 (Homo sapiens, UniProt P23458); assay: Biochemical JAK1 kinase assay (LanthaScreen)
T3 construct: GST; purchased Life Technologies
Summary of the method: as §1

JAK2 = biological target: T4, JAK2 (Homo sapiens, UniProt O60674); assay: Biochemical JAK2 kinase assay (LanthaScreen)
T4 construct: GST; purchased Life Technologies
Summary of the method: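 pKi values derive from pIC50 via Cheng-Prusoff, with IC50 from a 4-parameter fit of percent-inhibition TR-FRET data using Tb-anti-pSTAT1 (pTyr701) detection. Compound, GST-JAK2 and GFP-STAT1 substrate were pre-incubated 1 h, then ATP started a 1 h ambient reaction (HEPES pH 7.5, 10 mM MgCl2, 1% DMSO).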

T4 sequence (O60674 whole entry): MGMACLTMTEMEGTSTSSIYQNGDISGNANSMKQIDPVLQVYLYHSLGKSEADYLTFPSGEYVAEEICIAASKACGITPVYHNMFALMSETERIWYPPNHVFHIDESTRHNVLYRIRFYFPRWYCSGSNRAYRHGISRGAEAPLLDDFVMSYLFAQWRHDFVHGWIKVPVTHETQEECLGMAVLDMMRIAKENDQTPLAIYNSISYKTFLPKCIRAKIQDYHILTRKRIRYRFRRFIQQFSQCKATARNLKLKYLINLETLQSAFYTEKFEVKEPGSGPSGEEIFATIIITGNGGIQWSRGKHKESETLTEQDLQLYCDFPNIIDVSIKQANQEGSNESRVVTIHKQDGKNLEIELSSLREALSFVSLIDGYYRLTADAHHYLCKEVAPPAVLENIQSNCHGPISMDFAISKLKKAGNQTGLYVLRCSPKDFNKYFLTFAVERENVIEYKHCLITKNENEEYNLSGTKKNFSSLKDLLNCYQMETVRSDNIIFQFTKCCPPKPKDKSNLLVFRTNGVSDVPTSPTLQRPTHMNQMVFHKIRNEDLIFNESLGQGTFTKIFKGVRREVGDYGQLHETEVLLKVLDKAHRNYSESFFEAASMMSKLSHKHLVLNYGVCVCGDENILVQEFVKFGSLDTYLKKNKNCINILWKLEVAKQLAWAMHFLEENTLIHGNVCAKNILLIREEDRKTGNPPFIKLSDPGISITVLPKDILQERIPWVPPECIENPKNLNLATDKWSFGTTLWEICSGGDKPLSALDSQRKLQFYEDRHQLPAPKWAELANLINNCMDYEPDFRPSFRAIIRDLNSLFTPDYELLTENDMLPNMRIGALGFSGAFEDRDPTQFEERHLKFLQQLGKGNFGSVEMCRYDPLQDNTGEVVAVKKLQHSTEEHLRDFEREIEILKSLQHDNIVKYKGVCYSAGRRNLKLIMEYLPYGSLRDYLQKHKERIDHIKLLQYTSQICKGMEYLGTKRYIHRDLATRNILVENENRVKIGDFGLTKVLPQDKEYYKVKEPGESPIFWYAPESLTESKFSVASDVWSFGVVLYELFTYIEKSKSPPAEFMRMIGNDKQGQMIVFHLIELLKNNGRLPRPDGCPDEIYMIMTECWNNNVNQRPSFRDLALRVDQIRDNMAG
T1 sequence (P29597 whole entry): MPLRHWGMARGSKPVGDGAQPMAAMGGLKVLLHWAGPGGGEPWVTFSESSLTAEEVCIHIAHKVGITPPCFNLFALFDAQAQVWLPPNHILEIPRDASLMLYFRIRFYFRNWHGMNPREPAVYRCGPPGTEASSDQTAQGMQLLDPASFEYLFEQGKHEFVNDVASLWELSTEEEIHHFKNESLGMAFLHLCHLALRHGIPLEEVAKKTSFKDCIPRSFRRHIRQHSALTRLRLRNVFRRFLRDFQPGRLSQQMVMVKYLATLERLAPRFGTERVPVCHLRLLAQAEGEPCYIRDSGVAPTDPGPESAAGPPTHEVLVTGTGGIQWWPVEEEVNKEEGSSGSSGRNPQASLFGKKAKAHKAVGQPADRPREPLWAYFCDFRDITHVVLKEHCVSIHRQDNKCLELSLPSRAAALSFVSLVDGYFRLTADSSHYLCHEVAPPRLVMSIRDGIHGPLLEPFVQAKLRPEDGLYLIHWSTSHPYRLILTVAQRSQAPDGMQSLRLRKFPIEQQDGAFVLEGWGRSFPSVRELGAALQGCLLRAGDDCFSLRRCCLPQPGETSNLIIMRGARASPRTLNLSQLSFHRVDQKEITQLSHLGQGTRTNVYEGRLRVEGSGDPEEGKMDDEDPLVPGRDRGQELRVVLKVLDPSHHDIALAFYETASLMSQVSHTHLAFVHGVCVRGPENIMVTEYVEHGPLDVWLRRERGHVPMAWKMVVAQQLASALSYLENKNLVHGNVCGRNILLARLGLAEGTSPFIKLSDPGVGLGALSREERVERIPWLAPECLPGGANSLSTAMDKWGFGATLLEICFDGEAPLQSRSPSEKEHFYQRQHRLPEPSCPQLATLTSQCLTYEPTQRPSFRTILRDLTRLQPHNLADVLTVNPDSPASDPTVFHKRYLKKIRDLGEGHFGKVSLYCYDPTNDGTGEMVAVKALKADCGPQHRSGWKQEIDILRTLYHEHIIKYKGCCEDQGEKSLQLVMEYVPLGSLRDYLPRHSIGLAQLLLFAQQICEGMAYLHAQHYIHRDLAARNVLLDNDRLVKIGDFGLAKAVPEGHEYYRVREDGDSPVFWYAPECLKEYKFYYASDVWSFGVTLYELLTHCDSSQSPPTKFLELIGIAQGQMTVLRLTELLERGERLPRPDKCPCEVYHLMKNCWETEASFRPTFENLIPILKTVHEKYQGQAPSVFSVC
T3 sequence (P23458 whole entry): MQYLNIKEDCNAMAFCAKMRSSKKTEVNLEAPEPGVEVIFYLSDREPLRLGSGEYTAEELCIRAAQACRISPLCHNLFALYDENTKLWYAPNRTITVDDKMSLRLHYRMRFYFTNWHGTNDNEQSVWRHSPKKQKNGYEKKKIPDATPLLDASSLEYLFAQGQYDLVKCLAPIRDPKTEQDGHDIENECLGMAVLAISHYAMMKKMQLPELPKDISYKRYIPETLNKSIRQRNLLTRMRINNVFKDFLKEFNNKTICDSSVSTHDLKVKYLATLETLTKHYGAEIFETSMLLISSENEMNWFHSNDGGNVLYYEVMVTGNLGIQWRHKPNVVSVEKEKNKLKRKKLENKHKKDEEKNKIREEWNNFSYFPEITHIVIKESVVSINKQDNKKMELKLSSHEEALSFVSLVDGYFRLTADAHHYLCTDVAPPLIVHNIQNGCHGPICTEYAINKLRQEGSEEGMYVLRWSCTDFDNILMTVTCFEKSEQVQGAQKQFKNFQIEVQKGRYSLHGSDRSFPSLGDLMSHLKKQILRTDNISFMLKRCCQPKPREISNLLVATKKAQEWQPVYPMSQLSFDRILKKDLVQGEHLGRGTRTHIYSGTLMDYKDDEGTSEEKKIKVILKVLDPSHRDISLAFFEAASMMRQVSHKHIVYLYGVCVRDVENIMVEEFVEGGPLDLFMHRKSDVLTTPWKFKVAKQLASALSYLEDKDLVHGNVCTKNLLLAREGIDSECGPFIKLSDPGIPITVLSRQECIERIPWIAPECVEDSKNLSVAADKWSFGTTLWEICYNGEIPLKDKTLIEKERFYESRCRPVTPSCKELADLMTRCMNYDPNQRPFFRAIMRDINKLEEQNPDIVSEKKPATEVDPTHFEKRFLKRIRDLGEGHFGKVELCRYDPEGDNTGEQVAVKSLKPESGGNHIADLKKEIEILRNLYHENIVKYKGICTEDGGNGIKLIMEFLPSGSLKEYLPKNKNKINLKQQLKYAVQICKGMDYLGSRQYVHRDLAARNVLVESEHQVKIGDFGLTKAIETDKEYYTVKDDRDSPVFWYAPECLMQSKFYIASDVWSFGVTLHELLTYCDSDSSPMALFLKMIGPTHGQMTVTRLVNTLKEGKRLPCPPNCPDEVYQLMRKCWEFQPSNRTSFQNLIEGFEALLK

SMILES	Tyk 2 (pKi) (Tyk2)	JAK 3 (pKi) (JAK3)	JAK3 (pKi)-JAK1 (pKi) (JAK3)	Tall-1 (pIC50) [1]	JAK 1 (pKi) (JAK1)	JAK 2 (pKi) (JAK2)
C=CC(=O)N1CC(CSc2cc(-c3ccc(O)c(Cl)c3)cc3[nH]ncc23)C1 [Compound 13-8]	E (a pKi value of 7 or below (Ki of 100 nM or above))	B (a pKi value between 9 and 10 (Ki between 1 nM and 0.1 nM))	A (a value of 3 or above)	A (a pIC50 value≥7.5 (IC50≤32 nM))	E (a pKi value of 7 or below (Ki of 100 nM or above))	E (a pKi value of 7 or below (Ki of 100 nM or above))
C=CC(=O)N1CC(CSc2cc(-c3ccc(O)cc3)nc3[nH]ncc23)C1 [Compound 13-9]	E (a pKi value of 7 or below (Ki of 100 nM or above))	B (a pKi value between 9 and 10 (Ki between 1 nM and 0.1 nM))	A (a value of 3 or above)	B (a pIC50 value between 6.7 (included) and 7.5 (IC50 between 200 nM and 32 nM))	E (a pKi value of 7 or below (Ki of 100 nM or above))	E (a pKi value of 7 or below (Ki of 100 nM or above))
C=CC(=O)N1CC[C@@H](Oc2nc(-c3ccc(O)cc3)nc3[nH]ncc23)C[C@H]1C [Compound 13-10]	E (a pKi value of 7 or below (Ki of 100 nM or above))	B (a pKi value between 9 and 10 (Ki between 1 nM and 0.1 nM))	A (a value of 3 or above)	B (a pIC50 value between 6.7 (included) and 7.5 (IC50 between 200 nM and 32 nM))	E (a pKi value of 7 or below (Ki of 100 nM or above))	E (a pKi value of 7 or below (Ki of 100 nM or above))
C=CC(=O)N1CCC(Oc2cc(-c3ccc(O)cc3)nc3[nH]ncc23)CC1C (stereo not drawn) [Compound 13-11]	E (a pKi value of 7 or below (Ki of 100 nM or above))	A (a pKi value≥10 (Ki≤0.1 nM))	A (a value of 3 or above)	A (a pIC50 value≥7.5 (IC50≤32 nM))	E (a pKi value of 7 or below (Ki of 100 nM or above))	E (a pKi value of 7 or below (Ki of 100 nM or above))
C=CC(=O)N1CCC(Oc2cc(-c3ccc(O)cc3)nc3[nH]ncc23)CC1C (stereo not drawn) [Compound 13-12]	E (a pKi value of 7 or below (Ki of 100 nM or above))	B (a pKi value between 9 and 10 (Ki between 1 nM and 0.1 nM))	A (a value of 3 or above)	B (a pIC50 value between 6.7 (included) and 7.5 (IC50 between 200 nM and 32 nM))	E (a pKi value of 7 or below (Ki of 100 nM or above))	E (a pKi value of 7 or below (Ki of 100 nM or above))
C=CC(=O)N1CCC(Oc2cc(-c3ccc(O)cc3)nc3[nH]ncc23)CC1C (stereo not drawn) [Compound 13-13]	E (a pKi value of 7 or below (Ki of 100 nM or above))	B (a pKi value between 9 and 10 (Ki between 1 nM and 0.1 nM))	A (a value of 3 or above)	C (a pIC50 value between 6 and 6.7 (IC50 between 1 μM and 200 nM))	E (a pKi value of 7 or below (Ki of 100 nM or above))	E (a pKi value of 7 or below (Ki of 100 nM or above))
C=CC(=O)N1CCC(C)(Oc2cc(-c3ccc(O)cc3Cl)cc3[nH]ncc23)C1 (stereo not drawn) [Compound 13-14]	E (a pKi value of 7 or below (Ki of 100 nM or above))	A (a pKi value≥10 (Ki≤0.1 nM))	A (a value of 3 or above)	A (a pIC50 value≥7.5 (IC50≤32 nM))	E (a pKi value of 7 or below (Ki of 100 nM or above))	D (a pKi value between 7 and 8 (Ki between 100 nM and 10 nM))
C=CC(=O)N1CCC(C)(Oc2cc(-c3ccc(O)cc3)cc3[nH]ncc23)C1 (stereo not drawn) [Compound 13-15]	E (a pKi value of 7 or below (Ki of 100 nM or above))	B (a pKi value between 9 and 10 (Ki between 1 nM and 0.1 nM))	A (a value of 3 or above)	B (a pIC50 value between 6.7 (included) and 7.5 (IC50 between 200 nM and 32 nM))	E (a pKi value of 7 or below (Ki of 100 nM or above))	D (a pKi value between 7 and 8 (Ki between 100 nM and 10 nM))
C=CC(=O)N1CC2(CCC2Oc2nc(-c3ccc(O)cc3)nc3[nH]ncc23)C1 (stereo not drawn) [Compound 13-16]	E (a pKi value of 7 or below (Ki of 100 nM or above))	B (a pKi value between 9 and 10 (Ki between 1 nM and 0.1 nM))	A (a value of 3 or above)	B (a pIC50 value between 6.7 (included) and 7.5 (IC50 between 200 nM and 32 nM))	E (a pKi value of 7 or below (Ki of 100 nM or above))	E (a pKi value of 7 or below (Ki of 100 nM or above))
C=CC(=O)N1CCO[C@@H](C(=O)Nc2cc(-c3ccc(O)cc3)nc3[nH]ncc23)C1 [Compound 13-19]	E (a pKi value of 7 or below (Ki of 100 nM or above))	A (a pKi value≥10 (Ki≤0.1 nM))	A (a value of 3 or above)	B (a pIC50 value between 6.7 (included) and 7.5 (IC50 between 200 nM and 32 nM))	E (a pKi value of 7 or below (Ki of 100 nM or above))	E (a pKi value of 7 or below (Ki of 100 nM or above))
C=CC(=O)N1CCO[C@@H](C(=O)Nc2nc(-c3ccc(O)c(Cl)c3)cc3[nH]ncc23)C1 [Compound 13-20]	E (a pKi value of 7 or below (Ki of 100 nM or above))	B (a pKi value between 9 and 10 (Ki between 1 nM and 0.1 nM))	B (a value of 2.3 to 3)	B (a pIC50 value between 6.7 (included) and 7.5 (IC50 between 200 nM and 32 nM))	E (a pKi value of 7 or below (Ki of 100 nM or above))	E (a pKi value of 7 or below (Ki of 100 nM or above))
C=CC(=O)N1CCO[C@@H](C(=O)Nc2nc(-c3ccc(O)c(F)c3)cc3[nH]ncc23)C1 [Compound 13-21]	E (a pKi value of 7 or below (Ki of 100 nM or above))	B (a pKi value between 9 and 10 (Ki between 1 nM and 0.1 nM))	B (a value of 2.3 to 3)	A (a pIC50 value≥7.5 (IC50≤32 nM))	E (a pKi value of 7 or below (Ki of 100 nM or above))	D (a pKi value between 7 and 8 (Ki between 100 nM and 10 nM))
C=CC(=O)N1CCO[C@@H](C(=O)Nc2cc(-c3ccc(O)c(Cl)c3)nc3[nH]ncc23)C1 [Compound 13-22]	E (a pKi value of 7 or below (Ki of 100 nM or above))	B (a pKi value between 9 and 10 (Ki between 1 nM and 0.1 nM))	A (a value of 3 or above)	B (a pIC50 value between 6.7 (included) and 7.5 (IC50 between 200 nM and 32 nM))	E (a pKi value of 7 or below (Ki of 100 nM or above))	E (a pKi value of 7 or below (Ki of 100 nM or above))
